Data from patent US12516099B2, “Processes for generating engineered cells and compositions thereof” (Juno Therapeutics, Inc., priority 2018, dated 2026).

How the values were obtained:
mTOR = biological target: T1, mTOR (Homo sapiens, UniProt P42345); assay: Intracellular S6 phosphorylation in engineered T cells produced with mTOR kinase inhibitor; type: cell-based; settings: 1 μM Compound 63 during process; CD8+ memory subsets
T1 construct: endogenous in cells; host or cells: primary human CD4+ and CD8+ T cells transduced with an anti-CD19 CAR
Method: (§1) CD4+ and CD8+ T cells were isolated by immunoaffinity-based enrichment from leukapheresis samples from human donor subjects. At day 1, isolated CD4+ and CD8+ T cells were mixed 1:1 and stimulated with an anti-CD3/anti-CD28 oligomeric stimulatory reagent generated as described in Example 2 in serum-free media supplemented with recombinant IL-2 (100 IU/mL), recombinant IL-7 (600 IU/mL), and recombinant IL-15 (100 IU/mL) with or without 1 μM of 2-(3-hydroxyphenyl)-9-(2-isopropylphenyl)-8-oxo-8,9-dihydro-7H-purine-6-carboxamide (Compound 63). The T cells cultured with our without Compound 63 were incubated overnight (approximately 24 hr) at 37° C., and were then transduced in serum-free culture media with our without Compound 63 ([…]) with a lentiviral vector encoding an anti-CD19 CAR. […]
(§2) The cryofrozen engineered CD4+ and CD8+ T cells were thawed, and T cells were assessed for intracellular S6 phosphorylation, a ribosomal protein and marker of mTOR inhibition, and co-stained for surface expression of CD4 or CD8 and for CCR7 and CD45RA as markers of memory subsets. pS6 expression in live CD8+ T cells by memory subsets was shown by the expression of CCR7 and CD45RA as shown in FIG. 30A.

CAR-T cells = assay: Apoptosis marker (intracellular caspase) in thawed CAR-T cells; type: cell-based, human; settings: vs cells not incubated with compound 63
Method: (§3) Thawed cells generated by the process described were assessed for a marker of apoptosis (e.g., percentage of caspase positive CAR-T cells), phenotypic profile, and ability to produce intracellular cytokines following stimulation with PMA/Ionomycin and a Golgi Inhibitor. […] Thawed cells also were stained for surface expression of CD27 and CCR7 by flow cytometry.

CD4+ and CD8+ T cells [1] = assay: Intracellular cytokines after PMA/Ionomycin and Golgi inhibitor; type: cell-based, human
Method: as §3

CD27 and CCR7 = assay: Surface CD27 and CCR7 phenotype of T cells produced with Compound 63; type: cell-based, human; settings: CD8+ and CD4+ T cells
Method: as §3

[2] = test system: anti-idiotype (ID) antibody against the anti-CD19 CAR; assay: Long-term 12 day stimulation with anti-idiotype antibody beads; type: cell-based, human; settings: 12 days anti-ID beads
Source text: To further assess the functional activity of the cells, the generated T cell compositions were stimulated long-term over 12 days with beads conjugated with an anti-idiotype (ID) antibody against the anti-CD19 CAR, and expansion and survival of the cells were monitored (FIG. 31F, left panel) and total expansion metric calculated by area under the curve (FIG. 31F, right panel).

CD4+ and CD8+ T cells [3] = assay: Percent viable and total live cells of T cell composition produced with Compound 63; type: cell-based, human; settings: 1 μM Compound 63 during process
Method: as §1, §2

CC(C)c1ccccc1-n1c(=O)[nH]c2c(C(N)=O)nc(-c3cccc(O)c3)nc21 [Compound 63, 2-(3-hydroxyphenyl)-9-(2-isopropylphenyl)-8-oxo-8,9-dihydro-7H-purine-6-carboxamide]
pS6 mean fluorescence intensity (marker of mTOR inhibition) (mTOR): decreased the mean fluorescence intensity of stimulated memory T cell subsets
intracellular caspase expression (CAR-T cells): less intracellular caspase expression
level of intracellular cytokines IL2, IFNg, or TNF (CD4+ and CD8+ T cells [1]): substantially improved
phenotypic subset profile by CD27 and/or CCR7 (CD27 and CCR7): did not substantially alter the phenotypic subset profile of the cells
expansion and survival after long-term CAR-specific stimulation [2]: improved function of the T cells was observed following long-term CAR-specific stimulation
percent viable cells or total live cells (CD4+ and CD8+ T cells [3]): did not impact the percent viable cells or the total live cells
